From US10316070B2, “Dual protected pro-coelenterazine substrates” (PROMEGA CORPORATION, priority 2016, dated 2019) come the findings set out here.

The test has as its target T1, Cathepsin C (Bos taurus, UniProt Q3ZCJ8).
T1 construct: Cathepsin C (Sigma C8511 from bovine spleen); purchased Sigma C8511; host or cells: bovine spleen (tissue-derived)
Description: Cathepsin C assay: light output of furimazine mono- or bis-Gly-Phe pro-substrate with Nanoluc, with and without Cathepsin C. In kind it is biochemical, bovine. The conditions noted are these: for Signal to Background: Cathepsin C vs none; for Background RLU: without Cathepsin C, Nanoluc. As to the method:
Cathepsin C assay. To the solution of 50 μl of furimazine mono- or bis-Gly-Phe compound (50 μM) in 1:1 NanoGlo and nanopure water containing DTT 5 mM and 50 µL of 1 ng/mL Nanoluc buffer in 1:1 NanoGlo and nanopure water containing 5 mM DTT was added, then 10 μL of Cathepsin C (Sigma C8511 from bovine spleen) at final concentration of 0.1 U/well was added. The light output was measured over time. The background of pro-substrate was measured under same condition without adding Cathepsin C.
The synthesized coelenterazine analogues (compounds of formula (I)) were evaluated for their background and signal/background ratio.

T1 sequence (Q3ZCJ8 231-394 limits assumed): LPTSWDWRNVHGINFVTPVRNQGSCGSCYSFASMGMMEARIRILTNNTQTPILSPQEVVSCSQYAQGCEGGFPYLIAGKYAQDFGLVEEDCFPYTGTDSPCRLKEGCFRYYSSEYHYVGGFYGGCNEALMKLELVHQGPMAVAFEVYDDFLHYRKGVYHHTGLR
T1 sequence (Q3ZCJ8 25-134 limits assumed): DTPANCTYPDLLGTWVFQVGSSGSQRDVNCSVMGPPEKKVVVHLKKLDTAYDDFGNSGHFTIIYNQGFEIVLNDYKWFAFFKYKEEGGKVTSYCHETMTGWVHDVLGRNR
T1 sequence (Q3ZCJ8 395-463 limits assumed): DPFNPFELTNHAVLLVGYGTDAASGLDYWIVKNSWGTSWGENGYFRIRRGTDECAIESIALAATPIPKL

With `NCC(=O)NC(Cc1ccccc1)C(=O)Nc1ccc(COc2c(Cc3ccco3)nc3c(Cc4ccccc4)nc(-c4cccc(NC(=O)C(Cc5ccccc5)NC(=O)CN)c4)cn23)cc1` (stereo not drawn) [WZ-0299, Bis-Gly-Phe-Aminobenzyl Furimazine], the “background (in words)” value (FIG. 3, Tables 5 and 6) is reported as “down to instrument noise”. Also, the “Signal to Background” value (Time 5 min) came out at 751; the “Signal to Background” value (Time 10 min) was 1,464; the “Signal to Background” value (Time 20 min) is listed as 2,256; the “Signal to Background” value (Time 30 min) was 3,036; the “Signal to Background” value (Time 40 min) was 3,941; the “Signal to Background” value (Time 60 min) is reported as 8,514. Also, the “Signal to Background” value by setting is: (Time 90 min) 11,997; (Time 120 min) 23,011; (Time 180 min) 29,836; (Time 240 min) 46,864; (Time 938 min) 17,386. The “Background RLU” value reads like this: (Time 5 min) 20 RLU; (Time 10 min) 21 RLU; (Time 20 min) 18 RLU; (Time 30 min) 14 RLU; (Time 40 min) 14 RLU; (Time 60 min) 15 RLU. Also, the “Background RLU” value is recorded as 16 RLU (Time 90 min); 12 RLU (Time 120 min); 17 RLU (Time 180 min); 15 RLU (Time 240 min); 12 RLU (Time 938 min). Under “compared to mono-protected analogue WZ-0294”, the “signal-to-background ratio (in words)” value was “significantly higher”.
